Values quoted from earlier work as cited in patent publication US8529952B2 (Ethypharm, priority 1999, dated 2013).

## CC(C)(Oc1ccc(C(=O)c2ccc(Cl)cc2)cc1)C(=O)O [fenofibric acid]
Dose of 300 mg of fenofibrate per day
  mean concentration in the plasma: ~15 micrograms/ml
On average
  time to maximum concentration in the plasma after ingestion: five
plasma
  half-life for elimination from the plasma: ~20 h
